What was measured:
maize protox-1 mutants = assay: Mutant screens of maize protox-1 (pMut-3) in the E. coli system; type: cell-based; conditions: double mutant; screen on this herbicide
Method: The pMut-3 plasmid was transformed into the mutator XL1-Red strain as described above and the mutated DNA was isolated and plated on a herbicide concentration (formula XVII) that was lethal to the unmutagenized pMut-3 maize protox gene. Herbicide tolerant colonies were isolated after two days at 37° C. and analyzed as described above. […] Three of these mutations correspond to amino acid changes previously shown to confer tolerance at the homologous position in the Arabidopsis protox-1 gene. Two of the three are pMzC-1Val and pMzC-1Thr, converting the alanine (GCT) at amino acid 164 (SEQ ID NO:6) to either valine ([…]) or to threonine (ACT). This position corresponds to the pAraC-1 mutations described above (see, Table 1B; sub-sequence 3). The third analogous change, pMzC-3Ser, converts the glycine (GGT) at amino acid 165 to Serine (AGT), corresponding to the AraC-3Ser mutation described above (see, Table 1B; sub-sequence 4).
Additional mutant screens performed as described earlier in this example, except using formulas XXIIIa and XXIIIb instead of XVII, identified three additional amino acid changes that confer tolerant protox enzymes. […]

[1] = tested on: Arabidopsis line expressing AraC-2Ile+AraC305Leu; assay: Cross tolerance in a seed germination assay, homozygous Arabidopsis line with AraC-2Ile+AraC305Leu; type: in vivo, Arabidopsis thaliana; conditions: AraC-2Ile+AraC305Leu line vs wt
Method: Using the procedure described above, an Arabidopsis protox-1 cDNA containing a TAC to ATG (Tyrosine to Methionine) change at nucleotides 1306-1308 in the protox-1 sequence (SEQ ID NO:1) was fused to the native protox-1 promoter fragment and transformed into Arabidopsis thaliana. […] Seed from the vacuum infiltrated plants was collected and plated on a range (10.0 nM-1.0 uM) of a protox inhibitory aryluracil herbicide of formula XVII. Multiple experiments with wild type Arabidopsis have shown that a 10.0 nM concentration of this compound is sufficient to prevent normal seedling germination. Transgenic seeds expressing the AraC-2Met altered enzyme fused to the native protox-1 promoter produced normal Arabidopsis seedlings at herbicide concentrations up to 500 nM, indicating at least 50-fold higher herbicide tolerance when compared to wild-type Arabidopsis. This promoter/altered protox enzyme fusion therefore functions as an effective selectable marker for plant transformation. Several of the plants that germinated on 100.0 nM of protox-inhibiting herbicide were transplanted to soil, grown 2-3 weeks, and tested in a spray assay with various concentrations of the protox-inhibiting herbicide. When compared to empty vector control transformants, the AraPT1Pro/AraC-2Met transgenics were >10-fold more tolerant to the herbicide spray.
Using the procedure described above, an Arabidopsis protox-1 cDNA containing both a TAC to ATC (tyrosine to isoleucine) change at nucleotides 1306-1308 and a TCA to TTA (serine to leucine) change at nucleotides 945-947 in the protox-1 sequence (SEQ ID NO:1) was fused to the native protox-1 promoter fragment and transformed into Arabidopsis thaliana.

[2] = target: T1, plant protox mutants (MzC-1Val, maize protox-1) in SASX38 (Arabidopsis thaliana, UniProt P55826, A220V/A252T/A259N/A262P/A292S/A82G/A83V/D204A/D323E/D487E/D93A/DEL80-81/E103P/E263P/E288N/E311D/E351S/E499D/F107Y/F178L/F250I/F483L/G171P/G277A/G306S/G313K/G344N/G441S/H340Y/I100T/I174L/I370V/I421V/I485L/I71T/I87L/INS101VE/K237R/K257S/K359R/K388Q/K457N/K465V/K78R/K92R/L137F/L159P/L310S/L325V/L345I/L360F/L436V/L86V/M122V/N105E/N149E/N241T/N258K/N316V/N355D/N459T/N85D/P266A/P418D/P458S/P84G/Q240E/Q272K/R284A/R293S/S186P/S291T/S305T/S312D/S330A/S352D/S369T/S430A/S439T/S460A/S491A/S492A/S495R/S496G/T141N/T160A/T318E/T379K/T397S/T461V/T488A/T494D/T56K/V126A/V334I/V337I/V95P); assay: Bacterial cross-tolerance testing of resistant mutant plasmids in SASX38, maize protox-1 mutant; type: cell-based; conditions: mutant MzC-1Val vs WT plasmid in SASX38
T1 construct: expressed in transfected cells; host or cells: E. coli SASX38 (hemG mutant)
T1 sequence (P55826 other isoform, or with tags, fused parts or gaps with the stated changes): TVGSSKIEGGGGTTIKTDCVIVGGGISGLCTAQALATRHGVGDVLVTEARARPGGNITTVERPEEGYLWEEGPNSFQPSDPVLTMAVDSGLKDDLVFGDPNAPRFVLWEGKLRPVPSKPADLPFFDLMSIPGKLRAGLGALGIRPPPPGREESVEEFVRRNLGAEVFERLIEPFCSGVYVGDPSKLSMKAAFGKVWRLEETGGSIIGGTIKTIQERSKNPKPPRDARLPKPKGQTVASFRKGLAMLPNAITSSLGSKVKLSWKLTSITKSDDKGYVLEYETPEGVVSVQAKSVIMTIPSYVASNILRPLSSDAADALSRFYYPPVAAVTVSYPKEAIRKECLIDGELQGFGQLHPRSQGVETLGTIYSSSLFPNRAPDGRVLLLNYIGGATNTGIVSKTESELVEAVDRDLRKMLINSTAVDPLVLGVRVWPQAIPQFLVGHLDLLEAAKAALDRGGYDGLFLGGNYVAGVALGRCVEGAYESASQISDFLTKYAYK
Method: (§1) Resistant mutant plasmids, originally identified based on resistance against a single protox inhibitory herbicide, were tested against a spectrum of other protox inhibiting compounds. For this test, the SASX38 strain containing the wild-type plasmid is plated on a range of concentrations of each compound to determine the lethal concentration for each one. Resistant mutant plasmids in SASX38 are plated and scored for the ability to survive on a concentration of each compound at least 10 fold higher than the concentration that is lethal to the SASX38 strain containing the wild-type plasmid.

[3] = target: T2, plant protox mutants (Arabidopsis protox-1) in SASX38 (Arabidopsis thaliana, UniProt P55826, A220V/T56K); assay: Bacterial cross-tolerance testing of resistant mutant plasmids in SASX38, Arabidopsis protox-1 mutants; type: cell-based; parameters: key to Cross tolerance, AraC-1Val / Cross tolerance, AraC-2Cys / Cross tolerance, AraC-1Thr / Cross tolerance, AraC-3Thr / Cross tolerance, AraC-2Ile / Cross tolerance, AraC-2Cys + AraC425Ser: + = 10× or more tolerant than WT; ++ = 100× or more tolerant than WT; − = no cross tolerance; conditions: mutant AraC-1Val vs WT plasmid in SASX38
T2 construct: contains only 17 amino acids of the putative chloroplast transit peptide; expressed in transfected cells; host or cells: E. coli SASX38 (hemG mutant)
T2 sequence (P55826 41-537 T56K/A220V): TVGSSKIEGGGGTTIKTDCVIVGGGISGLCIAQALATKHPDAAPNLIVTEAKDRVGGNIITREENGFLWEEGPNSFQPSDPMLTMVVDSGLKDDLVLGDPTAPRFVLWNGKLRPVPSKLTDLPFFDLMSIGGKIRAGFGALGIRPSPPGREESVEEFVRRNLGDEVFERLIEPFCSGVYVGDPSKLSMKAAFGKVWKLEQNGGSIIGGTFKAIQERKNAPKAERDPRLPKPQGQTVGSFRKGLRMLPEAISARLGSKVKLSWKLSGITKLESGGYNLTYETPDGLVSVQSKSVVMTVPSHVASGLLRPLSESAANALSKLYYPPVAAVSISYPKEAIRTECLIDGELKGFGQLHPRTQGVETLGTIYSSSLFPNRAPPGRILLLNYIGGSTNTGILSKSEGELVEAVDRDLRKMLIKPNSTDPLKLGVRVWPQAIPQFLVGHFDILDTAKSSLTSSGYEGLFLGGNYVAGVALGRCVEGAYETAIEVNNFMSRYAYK
Method: as §1

[4] = target: T3, plant protox mutants (Arabidopsis protox-1) in SASX38 (Arabidopsis thaliana, UniProt P55826, T56K/Y426C); assay: as above; type: cell-based; parameters: key to Cross tolerance, AraC-1Val / Cross tolerance, AraC-2Cys / Cross tolerance, AraC-1Thr / Cross tolerance, AraC-3Thr / Cross tolerance, AraC-2Ile / Cross tolerance, AraC-2Cys + AraC425Ser: + = 10× or more tolerant than WT; ++ = 100× or more tolerant than WT; − = no cross tolerance; conditions: mutant AraC-2Cys vs WT plasmid in SASX38
T3 construct: contains only 17 amino acids of the putative chloroplast transit peptide; expressed in transfected cells; host or cells: E. coli SASX38 (hemG mutant)
T3 sequence (P55826 41-537 T56K/Y426C): as the sequence (P55826 41-537 T56K/A220V) above, with V180A, Y386C counted along it
Method: as §1

[5] = tested on: plant protox mutants (Arabidopsis protox-1) in SASX38; assay: as above; type: cell-based; parameters: key to Cross tolerance, AraC-1Val / Cross tolerance, AraC-2Cys / Cross tolerance, AraC-1Thr / Cross tolerance, AraC-3Thr / Cross tolerance, AraC-2Ile / Cross tolerance, AraC-2Cys + AraC425Ser: + = 10× or more tolerant than WT; ++ = 100× or more tolerant than WT; − = no cross tolerance; conditions: mutant AraC-3Thr vs WT plasmid in SASX38
Method: as §1

[6] = target: T4, plant protox mutants (Arabidopsis protox-1) in SASX38 (Arabidopsis thaliana, UniProt P55826, A220T/T56K); assay: as above; type: cell-based; parameters: key to Cross tolerance, AraC-1Val / Cross tolerance, AraC-2Cys / Cross tolerance, AraC-1Thr / Cross tolerance, AraC-3Thr / Cross tolerance, AraC-2Ile / Cross tolerance, AraC-2Cys + AraC425Ser: + = 10× or more tolerant than WT; ++ = 100× or more tolerant than WT; − = no cross tolerance; conditions: mutant AraC-1Thr vs WT plasmid in SASX38
T4 construct: contains only 17 amino acids of the putative chloroplast transit peptide; expressed in transfected cells; host or cells: E. coli SASX38 (hemG mutant)
T4 sequence (P55826 41-537 T56K/A220T): as the sequence (P55826 41-537 T56K/A220V) above, with V180T counted along it
Method: as §1

[7] = target: T5, plant protox mutants (Arabidopsis protox-1) in SASX38 (Arabidopsis thaliana, UniProt P55826, N425S/T56K/Y426M); assay: as above; type: cell-based; parameters: key to Cross tolerance, AraC-1Val / Cross tolerance, AraC-2Cys / Cross tolerance, AraC-1Thr / Cross tolerance, AraC-3Thr / Cross tolerance, AraC-2Ile / Cross tolerance, AraC-2Cys + AraC425Ser: + = 10× or more tolerant than WT; ++ = 100× or more tolerant than WT; − = no cross tolerance; conditions: mutant AraC-2Met + AraC425Ser
T5 construct: contains only 17 amino acids of the putative chloroplast transit peptide; expressed in transfected cells; host or cells: E. coli SASX38 (hemG mutant)
T5 sequence (P55826 41-537 T56K/N425S/Y426M): as the sequence (P55826 41-537 T56K/A220V) above, with V180A, N385S, Y386M counted along it
Method: as §1

[8] = target: T6, plant protox mutants (Arabidopsis protox-1) in SASX38 (Arabidopsis thaliana, UniProt P55826, N425S/T56K/Y426C); assay: as above; type: cell-based; parameters: key to Cross tolerance, AraC-1Val / Cross tolerance, AraC-2Cys / Cross tolerance, AraC-1Thr / Cross tolerance, AraC-3Thr / Cross tolerance, AraC-2Ile / Cross tolerance, AraC-2Cys + AraC425Ser: + = 10× or more tolerant than WT; ++ = 100× or more tolerant than WT; − = no cross tolerance; conditions: mutant AraC-2Cys + AraC425Ser
T6 construct: contains only 17 amino acids of the putative chloroplast transit peptide; expressed in transfected cells; host or cells: E. coli SASX38 (hemG mutant)
T6 sequence (P55826 41-537 T56K/N425S/Y426C): as the sequence (P55826 41-537 T56K/A220V) above, with V180A, N385S, Y386C counted along it
Method: as §1

[9] = target: T7, plant protox mutants (Arabidopsis protox-1) in SASX38 (Arabidopsis thaliana, UniProt P55826, N425S/T56K/Y426L); assay: as above; type: cell-based; parameters: key to Cross tolerance, AraC-1Val / Cross tolerance, AraC-2Cys / Cross tolerance, AraC-1Thr / Cross tolerance, AraC-3Thr / Cross tolerance, AraC-2Ile / Cross tolerance, AraC-2Cys + AraC425Ser: + = 10× or more tolerant than WT; ++ = 100× or more tolerant than WT; − = no cross tolerance; conditions: mutant AraC-2Leu + AraC425Ser
T7 construct: contains only 17 amino acids of the putative chloroplast transit peptide; expressed in transfected cells; host or cells: E. coli SASX38 (hemG mutant)
T7 sequence (P55826 41-537 T56K/N425S/Y426L): as the sequence (P55826 41-537 T56K/A220V) above, with V180A, N385S, Y386L counted along it
Method: as §1

[10] = target: T8, plant protox mutants (Arabidopsis protox-1) in SASX38 (Arabidopsis thaliana, UniProt P55826, A220L/T56K); assay: as above; type: cell-based; parameters: key to Cross tolerance, AraC-1Val / Cross tolerance, AraC-2Cys / Cross tolerance, AraC-1Thr / Cross tolerance, AraC-3Thr / Cross tolerance, AraC-2Ile / Cross tolerance, AraC-2Cys + AraC425Ser: + = 10× or more tolerant than WT; ++ = 100× or more tolerant than WT; − = no cross tolerance; conditions: mutant AraC-1Leu
T8 construct: contains only 17 amino acids of the putative chloroplast transit peptide; expressed in transfected cells; host or cells: E. coli SASX38 (hemG mutant)
T8 sequence (P55826 41-537 T56K/A220L): as the sequence (P55826 41-537 T56K/A220V) above, with V180L counted along it
Method: as §1

## Cn1nc(-c2ncc(Cl)cc2F)c(Cl)c1OC(F)F [Formula XXIIIa]
Maize protox-1 mutants
  tolerance of maize enzyme Mz347Ser453Thr: highly tolerant

## CS(=O)(=O)NC(=O)c1cc(Oc2ccc(C(F)(F)F)cc2Cl)ccc1[N+](=O)[O-] [III]
[1]
  Tolerance: + (+ ≧ 10× more tolerant than wt)

## O=C([O-])c1cc(Oc2ccc(C(F)(F)F)cc2Cl)ccc1[N+](=O)[O-].[Na+] [II]
[1]
  Tolerance: + (+ ≧ 10× more tolerant than wt)

## COC(=O)c1cc(Oc2ccc(Cl)cc2Cl)ccc1[N+](=O)[O-] [IVb]
[1]
  Tolerance: + (+ ≧ 10× more tolerant than wt)

## CCOc1cc(Oc2ccc(C(F)(F)F)cc2Cl)ccc1[N+](=O)[O-] [IVc]
[1]
  Tolerance: + (+ ≧ 10× more tolerant than wt)

## CCOC(=O)C(C)OC(=O)c1cc(Oc2ccc(C(F)(F)F)cc2Cl)ccc1[N+](=O)[O-] (stereo not drawn) [IVd]
[1]
  Tolerance: ± (± ≦ 10× more tolerant than wt)

## CCOC(=O)COc1cc(-c2nn(C)c(OC(F)F)c2Cl)c(F)cc1Cl [XII]
[2]
  Cross tolerance, MzC-1Val: ++ (++ = 100× or more tolerant than WT)
[3]
  Cross tolerance, AraC-1Val: + (+ = 10× or more tolerant than WT)
[4]
  Cross tolerance, AraC-2Cys: −
[5]
  Cross tolerance, AraC-3Thr: ++ (++ = 100× or more tolerant than WT)
[6]
  Cross tolerance, AraC-1Thr: ++ (++ = 100× or more tolerant than WT)

## C#CCN1C(=O)COc2cc(F)c(N3C(=O)C4=C(CCCC4)C3=O)cc21 [XVI]
[2]
  Cross tolerance, MzC-1Val: + (+ = 10× or more tolerant than WT)
[7]
  Cross tolerance, AraC-2Met + AraC425Ser: ++ (++ = 100× or more tolerant than WT)
[8]
  Cross tolerance, AraC-2Cys + AraC425Ser: + (+ = 10× or more tolerant than WT)
[3]
  Cross tolerance, AraC-1Val: −
[4]
  Cross tolerance, AraC-2Cys: −
[9]
  Cross tolerance, AraC-2Leu + AraC425Ser: ++ (++ = 100× or more tolerant than WT)
[5]
  Cross tolerance, AraC-3Thr: −
[6]
  Cross tolerance, AraC-1Thr: −
[1]
  Tolerance: +++ (+++ ≧ 1000× more tolerant than wt)

## C#CC(C)Oc1cc(N2C(=O)C3=C(CCCC3)C2=O)c(F)cc1Cl (stereo not drawn) [XV]
[2]
  Cross tolerance, MzC-1Val: + (+ = 10× or more tolerant than WT)
[10]
  Cross tolerance, AraC-1Leu: ++ (++ = 100× or more tolerant than WT)
[7]
  Cross tolerance, AraC-2Met + AraC425Ser: ++ (++ = 100× or more tolerant than WT)
[8]
  Cross tolerance, AraC-2Cys + AraC425Ser: ++ (++ = 100× or more tolerant than WT)
[3]
  Cross tolerance, AraC-1Val: + (+ = 10× or more tolerant than WT)
[4]
  Cross tolerance, AraC-2Cys: + (+ = 10× or more tolerant than WT)
[5]
  Cross tolerance, AraC-3Thr: + (+ = 10× or more tolerant than WT)
[6]
  Cross tolerance, AraC-1Thr: + (+ = 10× or more tolerant than WT)

## CC(Cl)C(=O)Nc1c([N+](=O)[O-])cnn1-c1c(Cl)cc(C(F)F)cc1Cl (stereo not drawn) [XXIa]
[1]
  Tolerance: + (+ ≧ 10× more tolerant than wt)

## Cc1nn(-c2cc(NS(C)(=O)=O)c(Cl)cc2Cl)c(=O)n1C(F)F [X]
[1]
  Tolerance: + (+ ≧ 10× more tolerant than wt)

— patent US6808904B2, “Herbicide-tolerant protox genes produced by DNA shuffling” (priority 1994, dated 2004)
